Results reported in patent US10556936B2, “Immunogenic proteins and fragments thereof from allergenic mites” (ALK-ABELLÓ A/S, priority 2016, dated 2020).

Test system: HDM-specific T cells expanded from PBMCs of HDM-allergic individuals
Assay: T cell reactivity of peptides: IFN/IL-5 ELISPOT on in vitro expanded HDM-specific T cells
Format: cell-based, human
Details: for SFC/donor: individual peptides 10 μg/mL; for % responder: percentage of donors that produced a response against the peptide, 10 μg/mL
Description: Each sequence of an “L” cluster was aligned separately using the MEGA software tool with ClustalW. Fifteen-mer peptides overlapping by 10 amino acids were generated and the last 15-mer peptide was added when the sequence length was not divisible by 5, 14,783 unique peptides remained.
HLA class II binding predictions optimized for global coverage were performed for the seven class II alleles (HLA-DRB1*03:01, HLA-DRB1*07:01, HLA-DRB1*15:01, HLA-DRB3*01:01, HLA-DRB3*02:02, HLA-DRB4*01:01 and HLA-DRB5*01:01) using the standalone version of the IEDB class II binding prediction tool. The median consensus percentile rank was estimated from the consensus percentile ranks for the seven alleles. Further, peptides with more than ten overlapping amino acids, which appeared because several occurrences of some sequence regions were repeated multiple times in the same sequence, were eliminated (e.g. “[…]” was repeated seven times in one sequence.) Variant peptides were also removed, retaining the better peptide based on the median consensus percentile rank and conservation among the sequences within its respective cluster. Peptides with median consensus percentile rank ≤10.0 and conserved in ≥35% of sequences in the same cluster were finally selected, also including additional selected peptides chosen to maximize DRB1 allele coverage, for a grand total of 2,589 peptides.
Peptides were purchased from Mimotopes (Clayton, Victoria, Australia) or A and A (San Diego, Calif.) as crude material on a small (1-mg) scale. Individual peptides were resuspended in DMSO at a final concentration of 40 mg/mL. Peptide “megapools” of 30-65 peptides/pool were generated. Following lyophilization, each pool was reconstituted in DMSO so that each peptide was present at a concentration of 4 mg/mL. To facilitate deconvolution of positive megapools, each megapool was further broken down in 2-6 “mesopools” (259 mesopools in total), each containing 8-14 peptides. Each mesopool was then deconvoluted to identify individual positive peptides. To avoid dimerization and polymerization of peptides by intra- and intermolecular disulfide bond formation between cysteine residues, this amino acid were in some instances substituted by a serine residue in the peptides. Such peptides are herein marked with an asterisk (*).
PBMCs from European HDM-allergic individuals were recruited in the Copenhagen region (defined by clinical history of allergy to house dust mite and specific IgE to group 1 and group 2 major allergens from Der p and/or Der f and with measured specific IgE (CAP) >0.7 kU/L towards Der p/f 1 or Der p/f 2. In addition, PBMCs from 10 US HDM-allergic individuals were recruited in San Diego (defined by Der p extract IgE titers greater than 0.35 kUA/L). PBMCs were isolated from whole blood by density gradient centrifugation according to manufacturers' instructions (Ficoll-Hypaque, Amersham Biosciences, Uppsala, Sweden). Der p- and Der f-specific extract IgE titers were determined using the ImmunoCAP system (Thermo Fisher, Uppsala, Sweden). In a separate series of experiments, pooled plasma from 10 European and 10 American HDM atopic individuals from the San Diego region, respectively, was utilized to run 2D immunoblots to elucidate IgE and IgG reactivity towards the proteins, which had at least one peptide with positive T cell response.
HDM-specific T cells were expanded in vitro. Briefly, PBMCs from HDM-allergic individuals were stimulated with HDM extract (5 μg/mL) and expanded over 14-17 days with IL-2 (added every 3 days). Cells were harvested on day 14, restimulated with HDM extract (5 μg/mL), individual peptides (10 μg/mL) or peptide pools (5 μg/mL) and screened for […]/IL-5-production by ELISPOT. Criteria for positivity were 100 or 20 spot forming cells (SFCs) per 10^6 PBMCs for peptide pools or single peptides, respectively, p<0.05, and a stimulation index >2.

74 (TVSLRHLFQSFEITA; Immunogenic fragment) [compound 74]
SFC/donor: 25 SFC/donor | % responder: 5%

134 (TNNMLIIQTKLSIFN; Immunogenic fragment) [compound 134]
SFC/donor: 4 SFC/donor | % responder: 5%

73 (TLEQWHSKRYLLRLE; Immunogenic fragment) [compound 73]
SFC/donor: 4 SFC/donor | % responder: 5%

150 (ELNSRFVYAKLRGAF; Immunogenic fragment) [compound 150]
SFC/donor: 21 SFC/donor | % responder: 5%

63 (EFCPYLNISSCPSTE; Immunogenic fragment) [compound 63]
SFC/donor: 7 SFC/donor | % responder: 10%

121 (DIETQFMWGDSMLIA; Immunogenic fragment) [compound 121]
SFC/donor: 8 SFC/donor | % responder: 5%

61 (AMLQCRHVISESYRK; Immunogenic fragment) [compound 61]
SFC/donor: 5 SFC/donor | % responder: 5%

103 (QLHYNLHNLYSLSMA; Immunogenic fragment) [compound 103]
SFC/donor: 69 SFC/donor | % responder: 5%

45 (IMRILCCKSRKVAPC; Immunogenic fragment) [compound 45]
SFC/donor: 4 SFC/donor | % responder: 5%

YITFTEPFMINQLAA (Immunogenic fragment) [Peptide 180, fragment of A0023 Der f/p]
SFC/donor: 29 SFC/donor | % responder: 10%

127 (SQHLGYQTNQSIIIL; Immunogenic fragment) [compound 127]
SFC/donor: 7 SFC/donor | % responder: 10%

SLRGVTIRNAPFLEE (Immunogenic fragment) [Peptide 178, fragment of A0023 Der f]
SFC/donor: 42 SFC/donor | % responder: 10%

80 (NLSSKVLPNLNVPYC; Immunogenic fragment) [compound 80]
SFC/donor: 4 SFC/donor | % responder: 5%

YPRKYAFALPKDSQY (Immunogenic fragment) [Peptide 187, fragment of A0023 Der f]
SFC/donor: 25 SFC/donor | % responder: 10%

94 (FTNLNTTYTRNRAVG; Immunogenic fragment) [compound 94]
SFC/donor: 94 SFC/donor | % responder: 15%

46 (FNYLPVDVQEELRNT; Immunogenic fragment) [compound 46]
SFC/donor: 7 SFC/donor | % responder: 5%

88 (MVYSDQLIHVTSRLP; Immunogenic fragment) [compound 88]
SFC/donor: 3 SFC/donor | % responder: 5%

HKPIILGTLRNGATN (Immunogenic fragment) [Peptide 182, fragment of A0023 Der f]
SFC/donor: 175 SFC/donor | % responder: 10%

69 (EPIISFTSIESNKQA; Immunogenic fragment) [compound 69]
SFC/donor: 112 SFC/donor | % responder: 5%

52 (EIIRRFEAKGFKLVA; Immunogenic fragment) [compound 52]
SFC/donor: 40 SFC/donor | % responder: 5%

112 (PSILNFNLFGVPMIG; Immunogenic fragment) [compound 112]
SFC/donor: 4 SFC/donor | % responder: 5%

EARENYITFTEPFMI (Immunogenic fragment) [Peptide 179, fragment of A0023 Der f/p]
SFC/donor: 5 SFC/donor | % responder: 5%

83 (DLSMTKLKRVRPSGF; Immunogenic fragment) [compound 83]
SFC/donor: 4 SFC/donor | % responder: 5%

106 (AALTKLNKRPFIISR; Immunogenic fragment) [compound 106]
SFC/donor: 14 SFC/donor | % responder: 10%

118 (SSLQYRYRFLAHLYT; Immunogenic fragment) [compound 118]
SFC/donor: 37 SFC/donor | % responder: 20%

70 (HSKRYLLRLEHFYQR; Immunogenic fragment) [compound 70]
SFC/donor: 5 SFC/donor | % responder: 5%

76 (FKSFEIIAVEELTLG; Immunogenic fragment) [compound 76]
SFC/donor: 8 SFC/donor | % responder: 5%

68 (DGHGIVIRGRHLLLL; Immunogenic fragment) [compound 68]
SFC/donor: 24 SFC/donor | % responder: 5%

151 (FVYAKLRGAFSESTA; Immunogenic fragment) [compound 151]
SFC/donor: 9 SFC/donor | % responder: 5%

86 (RLYSVELDGSHLIVR; Immunogenic fragment) [compound 86]
SFC/donor: 3 SFC/donor | % responder: 5%

62 (RHIINESYKKLLPKS; Immunogenic fragment) [compound 62]
SFC/donor: 4 SFC/donor | % responder: 5%

59 (GTEKQHVAFNYAKML; Immunogenic fragment) [compound 59]
SFC/donor: 80 SFC/donor | % responder: 5%

120 (AHLYTLFYHVHKNGG; Immunogenic fragment) [compound 120]
SFC/donor: 8 SFC/donor | % responder: 5%

98 (WMDMFAEYHKTIAFD; Immunogenic fragment) [compound 98]
SFC/donor: 8 SFC/donor | % responder: 5%

LQHFNNAIKQLNTED (Immunogenic fragment) [Peptide 189, fragment of A0023 Der f]
SFC/donor: 24 SFC/donor | % responder: 10%

57 (WEGLNAVKTGRVMLG; Immunogenic fragment) [compound 57]
SFC/donor: 5 SFC/donor | % responder: 5%

82 (YIGYKIEKHSKNLIQ; Immunogenic fragment) [compound 82]
SFC/donor: 4 SFC/donor | % responder: 5%

104 (LHNLYSLSMAMATNA; Immunogenic fragment) [compound 104]
SFC/donor: 29 SFC/donor | % responder: 10%

99 (AEYHKTIAFDGAWLD; Immunogenic fragment) [compound 99]
SFC/donor: 24 SFC/donor | % responder: 15%

72 (KRYLLRLEHFYQSNE; Immunogenic fragment) [compound 72]
SFC/donor: 4 SFC/donor | % responder: 5%

95 (TTYTRNRAVGIPMDV; Immunogenic fragment) [compound 95]
SFC/donor: 77 SFC/donor | % responder: 15%

48 (EQYISGVILFDETVY; Immunogenic fragment) [compound 48]
SFC/donor: 326 SFC/donor | % responder: 20%

KDSQYLQHFNNAIKQ (Immunogenic fragment) [Peptide 188, fragment of A0023 Der f]
SFC/donor: 24 SFC/donor | % responder: 10%

102 (QLHYNLHNLYGFQEA; Immunogenic fragment) [compound 102]
SFC/donor: 14 SFC/donor | % responder: 10%

91 (GVFLFNSNAMDILTQ; Immunogenic fragment) [compound 91]
SFC/donor: 9 SFC/donor | % responder: 5%

122 (FMWGDSMLIAPILYP; Immunogenic fragment) [compound 122]
SFC/donor: 2 SFC/donor | % responder: 5%

140 (EDGLIYNIASREKAD; Immunogenic fragment) [compound 140]
SFC/donor: 55 SFC/donor | % responder: 5%
